Laboratory results as given in ChEMBL document CHEMBL4308866, “Rotenoisin A is a novel anti-adipogenic compound” (Bioorg Med Chem Lett, 2019).
Active and inactive are the calls of the source. No cut-off for these calls is given here.

Experiments:
[1] = test system: 3T3-L1; test: Cytotoxicity against mouse 3T3L1 cells assessed as effect on cell viability up to 1.5 ug/ml after 4 to 8 days by MTT assay; format: cell-based
[2] = test system: 3T3-L1; test: Induction of morphological changes in mouse 3T3L1 cells; format: cell-based
[3] = test system: 3T3-L1; test: Anti-adipogenic activity in mouse 3T3L1 preadipocytes assessed as inhibition of insulin/dexamethasone/isobutylmethylxanthine induced-cell differentiation treated every 2 days following compound washout for 8 days by Oil-red O staining based assay; format: functional
[4] = test system: 3T3-L1; test: Anti-adipogenic activity in mouse 3T3L1 preadipocytes assessed as inhibition of insulin/dexamethasone/isobutylmethylxanthine induced-lipid accumulation treated every 2 days following compound washout for 8 days by Oil-red O staining based assay; format: functional, cell-based
[5] = test system: 3T3-L1; test: Anti-adipogenic activity in mouse 3T3L1 adipocytes assessed as inhibition of insulin/dexamethasone/isobutylmethylxanthine induced-triglyceride accumulation at 0.4 ug/ml treated every 2 days following compound washout for 8 days by ELISA relative to control; format: functional
[6] = test system: 3T3-L1; test: Anti-adipogenic activity in mouse 3T3L1 adipocytes assessed as inhibition of insulin/dexamethasone/isobutylmethylxanthine induced-triglyceride accumulation at 1.5 ug/ml treated every 2 days following compound washout for 8 days by ELISA relative to control; format: functional
[7] = target: T1, 5'-AMP-activated protein kinase (Mus musculus) (UniProt Q5EG47+Q8BRK8+Q6PAM0+O54950+Q91WG5+Q9R078+Q8BGM7); test: Activation of AMPK in mouse 3T3L1 adipocytes in DMI differentiation media assessed as decrease in C/EBPbeta mRNA expression after 4 days by RP-PCR analysis; format: cell-based; conditions: 3T3-L1
[8] = target: T1, 5'-AMP-activated protein kinase (Mus musculus); test: Activation of AMPK in mouse 3T3L1 adipocytes in DMI differentiation media assessed as decrease in C/EBPalpha mRNA expression after 4 days by RP-PCR analysis; format: cell-based; conditions: 3T3-L1
[9] = target: T1, 5'-AMP-activated protein kinase (Mus musculus); test: Activation of AMPK in mouse 3T3L1 adipocytes in DMI differentiation media assessed as decrease in PPARgamma mRNA expression after 4 days by RP-PCR analysis; format: cell-based; conditions: 3T3-L1
[10] = target: T1, 5'-AMP-activated protein kinase (Mus musculus); test: Activation of AMPK in mouse 3T3L1 adipocytes in DMI differentiation media assessed as decrease in C/EBPbeta expression after 4 to 8 days by Western blot analysis; format: cell-based; conditions: 3T3-L1
[11] = target: T1, 5'-AMP-activated protein kinase (Mus musculus); test: Activation of AMPK in mouse 3T3L1 adipocytes in DMI differentiation media assessed as decrease in C/EBPalpha expression after 4 to 8 days by Western blot analysis; format: cell-based; conditions: 3T3-L1
[12] = target: T1, 5'-AMP-activated protein kinase (Mus musculus); test: Activation of AMPK in mouse 3T3L1 adipocytes in DMI differentiation media assessed as decrease in PPARgamma expression after 4 to 8 days by Western blot analysis; format: cell-based; conditions: 3T3-L1
[13] = target: T1, 5'-AMP-activated protein kinase (Mus musculus); test: Activation of AMPK in mouse 3T3L1 adipocytes in DMI differentiation media assessed as decrease in aP2 expression after 4 to 8 days by Western blot analysis; format: cell-based; conditions: 3T3-L1
[14] = target: T1, 5'-AMP-activated protein kinase (Mus musculus); test: Activation of AMPK in mouse 3T3L1 adipocytes in DMI differentiation media assessed as decrease in LPL expression after 4 to 8 days by Western blot analysis; format: cell-based; conditions: 3T3-L1
[15] = target: T1, 5'-AMP-activated protein kinase (Mus musculus); test: Activation of AMPK in mouse 3T3L1 adipocytes in DMI differentiation media assessed as decrease in FAS expression after 4 to 8 days by Western blot analysis; format: cell-based; conditions: 3T3-L1
[16] = target: AMP-activated protein kinase, AMPK (Homo sapiens) (UniProt P54646+O43741+P54619+Q9UGJ0+Q9Y478+Q13131+Q9UGI9); test: Activation of AMPK (unknown origin) at 0.4 to 1.5 ug/ml; format: protein-complex assay
[17] = target: T1, 5'-AMP-activated protein kinase (Mus musculus); test: Activation of AMPK in mouse 3T3L1 adipocytes in DMI differentiation media at 0.4 to 1.5 ug/ml after 8 days by Western blot analysis; format: cell-based; conditions: 3T3-L1
[18] = target: T1, 5'-AMP-activated protein kinase (Mus musculus); test: Activation of AMPK phosphorylation at […] residue in mouse 3T3L1 adipocytes in DMI differentiation media after 4 to 8 days by Western blot analysis; format: cell-based; conditions: 3T3-L1
[19] = test system: 3T3-L1; test: Effect on total AMPK expression in mouse 3T3L1 adipocytes in DMI differentiation media at 0.4 to 1.5 ug/ml after 4 to 8 days by Western blot analysis; format: ADME, cell-based
[20] = target: T1, 5'-AMP-activated protein kinase (Mus musculus); test: Activation of AMPK in mouse 3T3L1 adipocytes in DMI differentiation media assessed as increase in ACC phosphorylation after 4 to 8 days by Western blot analysis; format: cell-based; conditions: 3T3-L1
[21] = target: T1, 5'-AMP-activated protein kinase (Mus musculus); test: Activation of AMPK in mouse 3T3L1 adipocytes in DMI differentiation media at 1.5 ug/ml after 24 hrs in presence of AMPK inhibitor compound C by Western blot analysis; format: cell-based; conditions: 3T3-L1
[22] = target: T1, 5'-AMP-activated protein kinase (Mus musculus); test: Activation of AMPK in mouse 3T3L1 adipocytes in DMI differentiation media assessed as decrease in C/EBPbeta expression at 1.5 ug/ml after 24 hrs in presence of AMPK inhibitor compound C by Western blot analysis; format: cell-based; conditions: 3T3-L1
[23] = target: T1, 5'-AMP-activated protein kinase (Mus musculus); test: Activation of AMPK in mouse 3T3L1 adipocytes in DMI differentiation media assessed as decrease in C/EBPalpha expression at 1.5 ug/ml after 6 days in presence of AMPK inhibitor compound C by Western blot analysis; format: cell-based; conditions: 3T3-L1
[24] = target: T1, 5'-AMP-activated protein kinase (Mus musculus); test: Activation of AMPK in mouse 3T3L1 adipocytes in DMI differentiation media assessed as decrease in PPARgamma expression at 1.5 ug/ml after 6 days in presence of AMPK inhibitor compound C by Western blot analysis; format: cell-based; conditions: 3T3-L1
[25] = target: T1, 5'-AMP-activated protein kinase (Mus musculus); test: Activation of AMPK in mouse 3T3L1 adipocytes in DMI differentiation media assessed as increase in ACC phosphorylation in presence of AMPK inhibitor compound C by Western blot analysis; format: cell-based; conditions: 3T3-L1
[26] = target: T1, 5'-AMP-activated protein kinase (Mus musculus); test: Activation of AMPK phosphorylation at […] residue in mouse 3T3L1 adipocytes in DMI differentiation media in presence of AMPK inhibitor compound C by Western blot analysis; format: cell-based; conditions: 3T3-L1

C=C(C)[C@H]1Cc2c(ccc3c2O[C@@H]2COc4cc(OC)c(OC)cc4[C@@H]2[C@@]32CO2)O1 [ROTENOISIN A]
Activity [1]: Non-Toxic | Activity [2]: Non-Toxic | inhibition [3]: Dose-dependent effect | inhibition [4]: Dose-dependent effect | inhibition at 0.4 µg/mL [5]: 23% | inhibition at 1.5 µg/mL [6]: 57% | Activity [7]: Dose-dependent effect | Activity [8]: Dose-dependent effect | Activity [9]: Dose-dependent effect | Activity [10]: Dose-dependent effect | Activity [11]: Dose-dependent effect | Activity [12]: Dose-dependent effect | Activity [13]: Dose-dependent effect | Activity [14]: Dose-dependent effect | Activity [15]: Dose-dependent effect | Activity [16]: inactive | Activity [17]: Active | Activity [18]: Dose-dependent effect | Activity [19]: Non-Toxic | Activity [20]: Dose-dependent effect | Activity [21]: inactive | Activity [22]: inactive | Activity [23]: inactive | Activity [24]: inactive | Activity [25]: inactive | Activity [26]: inactive
